Like-named read-outs stand apart in the source and are kept apart here.
Columns and labels:
3815 strain [1] = assay: Ring stage survival assay (RSA); type: cell-based, P. falciparum; conditions: mean ± SD of three experiments
Source text: (§1) In early and late trophozoites, multiple PRDX6 foci (white arrow heads) were observed adjacent to the parasite FV. DNA, Hoechst 33342 (nuclei). Scale bars: 5 µm. (B-F) Immuno-transmission electron microscopy (TEM) using monoclonal mouse anti-PRDX6 antibody. (B) Uninfected RBC showing even cytosolic staining for PRDX6. (C-F) P. falciparum-infected RBCs show co-localization of PRDX6 and hemoglobin in vesicles at the inner surface of the parasite plasma membrane in structures that resemble cytostomes (black arrows), at the FV (white arrows), or within the parasite cytosol (striped grey arrow). Scale bars: 500 nm. […] Parasites were treated at ring stage and growth to schizont stage in the same cycle ("progression") or to next generation rings ("growth") was scored by flow cytometry using DNA intercalating fluorescent dye SYBR Green I. • Figure 3 concerns the radioactive PLA2 activity assay using phosphorylated recombinant human PRDX6 in presence or absence of Darapladib. Darapladib inhibits PLA2 activity of PRDX6 with IC50 of ≈0.5µM. • Figure 4 is related to the co-treatment of ART-resistant parasites with artemisinin and Darapladib synergistically reduces parasite survival. (A) Ring stage survival assays (RSA) (Witkowski et al., Lancet Infect. Dis. 13, 1043-1049 (2013)) with Darapladib (Dar) and Dihydroartemisinin (DHA) against ART-resistant P. falciparum strains. For detailed data regarding synergism, cf. Table 1. (B) Growth/Progression assay with continuous Darapladib treatment against ART-resistant P. falciparum strains. Data are means ± SD of three independent experiments, unpaired t-tests. […] The thermal shift of the melting temperature of PRDX6 in presence of Darapladib was determined using a SYPRO orange-based differential scanning fluorimetry (DSF) assay. ΔTm > 0.5°C was considered significant. Incubation with 25µM Darapladib decreased the Tm of PRDX6 by 1.1 ± 0.2 °C.
(§2) It has been investigated whether co-treatment with Darapladib and ART could restore ART-susceptibility in the ring stage survival assay (RSA).
(§3) The survival rate for treatment with 1 µM Darapladib alone and 700 nM DHA alone was multiplied to calculate a theoretical survival rate if the effect of the combination was additive ("Calc. Additive"). The experimentally measured survival rate ("Measured") was divided by the calculated theoretical additive survival rate for the co-treatment. A ratio < 1 for Measured/Calc. indicates synergism, a ratio = 1 indicates an additive effect and a ratio > 1 indicates an antagonistic effect. Data are means ± SD of six independent experiments for NF54 C580Y and three independent experiments for 3815, unpaired t-test.

NF54 Kelch13^C580Y [2] = assay: Ring stage survival assay (RSA); type: cell-based, P. falciparum; conditions: mean ± SD of six experiments
Source text: as §1, §2, §3

PRDX6 [3] = target: T1, PRDX6 (Homo sapiens, UniProt P30041); assay: SYPRO orange-based differential scanning fluorimetry (DSF) assay; type: binding; parameters: endogenous in cells; inferred to be P. falciparum-infected human red blood cells, because host and parasite proteins were profiled together; conditions: incubation with 25µM; ΔTm > 0.5°C considered significant
T1 sequence (P30041 1-224): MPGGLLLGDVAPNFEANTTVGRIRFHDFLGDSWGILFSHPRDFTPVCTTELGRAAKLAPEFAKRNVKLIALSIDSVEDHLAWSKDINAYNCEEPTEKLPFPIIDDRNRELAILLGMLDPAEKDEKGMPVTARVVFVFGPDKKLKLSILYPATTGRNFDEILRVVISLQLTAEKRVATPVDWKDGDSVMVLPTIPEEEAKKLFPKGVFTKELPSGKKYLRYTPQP
Source text: (§4) In early and late trophozoites, multiple PRDX6 foci (white arrow heads) were observed adjacent to the parasite FV. DNA, Hoechst 33342 (nuclei). Scale bars: 5 µm. (B-F) Immuno-transmission electron microscopy (TEM) using monoclonal mouse anti-PRDX6 antibody. (B) Uninfected RBC showing even cytosolic staining for PRDX6. (C-F) P. falciparum-infected RBCs show co-localization of PRDX6 and hemoglobin in vesicles at the inner surface of the parasite plasma membrane in structures that resemble cytostomes (black arrows), at the FV (white arrows), or within the parasite cytosol (striped grey arrow). Scale bars: 500 nm. […] Parasites were treated at ring stage and growth to schizont stage in the same cycle ("progression") or to next generation rings ("growth") was scored by flow cytometry using DNA intercalating fluorescent dye SYBR Green I. • Figure 3 concerns the radioactive PLA2 activity assay using phosphorylated recombinant human PRDX6 in presence or absence of Darapladib. […] The thermal shift of the melting temperature of PRDX6 in presence of Darapladib was determined using a SYPRO orange-based differential scanning fluorimetry (DSF) assay. ΔTm > 0.5°C was considered significant. […]
Binding of the compounds of the invention to PRDX6 induces a significant shift in the melting temperature of PRDX6 which can be detected using the hydrophobic fluorescent dye SYPRO orange (Figure 5). […]

3815 strain [4] = assay: Growth/Progression assay with continuous treatment; type: cell-based, P. falciparum; conditions: continuous treatment during the complete blood stage cycle
Source text: as §4, with “Darapladib. Darapladib inhibits PLA2 activity of PRDX6 with IC50 of ≈0.5µM. • Figure 4 is related to the co-treatment of ART-resistant parasites with artemisinin and Darapladib synergistically reduces parasite survival.” for “Darapladib.”

NF54 Kelch13^C580Y [5] = assay: Growth/Progression assay with continuous treatment; type: cell-based, P. falciparum; conditions: continuous treatment during the complete blood stage cycle
Source text: as §4, with “Darapladib. Darapladib inhibits PLA2 activity of PRDX6 with IC50 of ≈0.5µM. • Figure 4 is related to the co-treatment of ART-resistant parasites with artemisinin and Darapladib synergistically reduces parasite survival.” for “Darapladib.”

PRDX6 [6] = target: T1, PRDX6; assay: Activity-based protein profiling (ABPP), competition with the probe TAMRA-FP; type: binding; conditions: fluorescent labelling of PRDX6
Source text: Darapladib has been assessed for the binding to the PLA2 active site of PRDX6 by activity-based protein profiling (ABPP) using recombinant human PRDX6 and the fluorescently tagged probe TAMRA-FP that covalently labels the serine in the PLA2 active site of PRDX6.

[7] = target: T2, phosphorylated recombinant human PRDX6 (Homo sapiens, UniProt P30041); assay: Radioactive PLA2 activity assay; type: biochemical; conditions: read-out: IC50 of inhibition of PLA2 activity of PRDX6
T2 sequence (P30041 1-224): T1 sequence (P30041 1-224)
Source text: as §4, with “Darapladib. Darapladib inhibits PLA2 activity of PRDX6 with IC50 of ≈0.5µM. • Figure 4 is related to the co-treatment of ART-resistant parasites with artemisinin and Darapladib synergistically reduces parasite survival.” for “Darapladib.”

PRDX6 [8] = target: T1, PRDX6; assay: ITDR-CETSA (IsoThermal Dose Response-Cellular Thermal Shift Assay); type: cell-based; parameters: endogenous in cells; inferred to be P. falciparum-infected human red blood cells, because host and parasite proteins were profiled together; conditions: host and parasite proteins
P. falciparum 3D7 = assay: Blood stage progression and growth assay, flow cytometry with SYBR Green I; type: cell-based; conditions: for IC50: Plasmodium falciparum, 3D7, n = 3 in triplicates
Source text: as §1, with “1.” for “1. (B) Growth/Progression assay with continuous Darapladib treatment against ART-resistant P. falciparum strains. Data are means ± SD of three independent experiments, unpaired t-tests.”, “Incubation with 25µM Darapladib decreased the Tm of PRDX6 by 1.1 ± 0.2 °C.” left out
Darapladib was also tested in vitro for its ability to block P. falciparum blood stage growth and progression from rings to schizonts. Synchronous P. falciparum 3D7 cultures were treated at the ring stage and effects on ring to schizont development ("progression") and multiplication following completion of a full blood stage cycle ("growth") were assessed by flow cytometry using the DNA intercalating fluorescent dye SYBR Green I. […]

**Q.** `C[C@H]1[C@@H](O)O[C@@H]2O[C@@]3(C)CC[C@H]4[C@H](C)CC[C@@H]1[C@@]24OO3` [DHA, Dihydroartemisinin] was tested. Which “Parasite survival, Drugs Alone, DHA” value (3815 strain [1]; 3815, 700 nM DHA alone) did it give?
**A.** 7.1 ± 0.9%

**Q.** What about the “Parasite survival, Drugs Alone, DHA” value (NF54 Kelch13^C580Y [2]; 700 nM DHA alone) of the same compound?
**A.** 7.9 ± 1.7%

**Q.** How did the “decrease of the Tm of PRDX6” value (PRDX6 [3]) turn out when `CCN(CC)CCN(Cc1ccc(-c2ccc(C(F)(F)F)cc2)cc1)C(=O)Cn1c(SCc2ccc(F)cc2)nc(=O)c2c1CCC2` [Darapladib] was run?
**A.** 1.1 ± 0.2 °C

**Q.** What about the “Parasite survival, Drugs Alone, Dar 1µM” value (3815 strain [1]; 3815, 1 µM Darapladib alone) of the same compound?
**A.** 94.7 ± 3.2%

**Q.** What about the “Parasite survival, Drugs Alone, Dar 1µM” value (NF54 Kelch13^C580Y [2]; 1 µM Darapladib alone) of the same compound?
**A.** 89.0 ± 8.1%

**Q.** And the blood stage growth (3815 strain [4])?
**A.** effectively blocked blood stage growth

**Q.** And the blood stage growth (NF54 Kelch13^C580Y [5])?
**A.** effectively blocked blood stage growth

**Q.** And the “binding to the PLA2 active site of PRDX6” value (PRDX6 [6])?
**A.** bound the PLA2 active site of PRDX6, competed with TAMRA-FP and reduced the fluorescent labelling of PRDX6

**Q.** And the IC50 [7]?
**A.** ~500 nM

**Q.** And the “specificity for PRDX6” value (PRDX6 [8])?
**A.** no other essential host or parasite protein is targeted

**Q.** And the parasite development (P. falciparum 3D7; 3D7 cultures treated at the ring stage)?
**A.** arrested parasite development at the trophozoite stage

**Q.** And the IC50 (P. falciparum 3D7; ring stage to schizont, read-out: IC50 for parasite progression)?
**A.** 560 nM

**Q.** And the IC50 (P. falciparum 3D7; whole cycle, ring to ring, read-out: IC50 for parasite growth)?
**A.** 760 nM

Source: patent EP4257133A1, “OXO-AZAHETEROCYCLIC DERIVATIVES FOR USE IN THE TREATMENT OF MALARIA” (Institut Pasteur, priority 2022, dated 2023)
